Where a name gives a salt, the structure may show the parent alone. Read-outs that look alike come from different tables or passages of the source. Marks after values point to notes of the source that are not given here.
Key:
human MAO B = biological target: T1, human MAO B (Homo sapiens, UniProt P27338); test: fluorometric Monoamine Oxidase assay; assay type: biochemical; conditions: at 1 μM; read-out: hMAO B %Inh. (converted)
T1 construct: purchased Sigma Aldrich M7441
T1 sequence (P27338 1-520): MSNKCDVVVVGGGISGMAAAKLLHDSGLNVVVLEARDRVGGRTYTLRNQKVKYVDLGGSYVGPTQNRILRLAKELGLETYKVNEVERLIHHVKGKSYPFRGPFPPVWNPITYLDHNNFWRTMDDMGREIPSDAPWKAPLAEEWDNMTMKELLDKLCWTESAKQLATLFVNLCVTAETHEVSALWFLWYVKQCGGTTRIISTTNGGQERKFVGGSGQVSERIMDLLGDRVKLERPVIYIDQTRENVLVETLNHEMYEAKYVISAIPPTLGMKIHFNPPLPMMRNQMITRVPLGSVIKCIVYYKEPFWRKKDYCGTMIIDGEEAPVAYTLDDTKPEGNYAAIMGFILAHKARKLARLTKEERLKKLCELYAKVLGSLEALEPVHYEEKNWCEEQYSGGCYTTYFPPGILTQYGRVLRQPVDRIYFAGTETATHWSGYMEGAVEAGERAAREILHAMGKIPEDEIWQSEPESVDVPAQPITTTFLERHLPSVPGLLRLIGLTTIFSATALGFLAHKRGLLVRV
Description: Inhibition of human MAO B (hMAO B) was evaluated using a fluorometric Monoamine Oxidase assay as we described previously.
Inhibition of hMAO B was evaluated using fluorometric Monoamine Oxidase assay as described by Łażewska et al.. Recombinant MAO B was purchased from Sigma Aldrich (M7441). […] The assay was carried out in 96-well plate. Tested compounds dissolved in DMSO (1 μM) were added to wells that contained 98 µL of enzyme dilution (1 µg/well) in phosphate buffer (50 mM, pH 7.4). […] An enzymatic reaction started following addition of para-tyramine solution (200 μM). […] Each experiment was performed in duplicate.

AChE from electric eel [1] = biological target: T2, AChE from electric eel (Electrophorus electricus, UniProt O42275); conditions: cited from earlier work; for eeAChE % Inh.: at 10 μM
T2 construct: AChE was obtained from electric eel and BuChE from equine serum; purchased Sigma Aldrich; host or cells: electric eel (natural source)
T2 sequence (O42275 24-633): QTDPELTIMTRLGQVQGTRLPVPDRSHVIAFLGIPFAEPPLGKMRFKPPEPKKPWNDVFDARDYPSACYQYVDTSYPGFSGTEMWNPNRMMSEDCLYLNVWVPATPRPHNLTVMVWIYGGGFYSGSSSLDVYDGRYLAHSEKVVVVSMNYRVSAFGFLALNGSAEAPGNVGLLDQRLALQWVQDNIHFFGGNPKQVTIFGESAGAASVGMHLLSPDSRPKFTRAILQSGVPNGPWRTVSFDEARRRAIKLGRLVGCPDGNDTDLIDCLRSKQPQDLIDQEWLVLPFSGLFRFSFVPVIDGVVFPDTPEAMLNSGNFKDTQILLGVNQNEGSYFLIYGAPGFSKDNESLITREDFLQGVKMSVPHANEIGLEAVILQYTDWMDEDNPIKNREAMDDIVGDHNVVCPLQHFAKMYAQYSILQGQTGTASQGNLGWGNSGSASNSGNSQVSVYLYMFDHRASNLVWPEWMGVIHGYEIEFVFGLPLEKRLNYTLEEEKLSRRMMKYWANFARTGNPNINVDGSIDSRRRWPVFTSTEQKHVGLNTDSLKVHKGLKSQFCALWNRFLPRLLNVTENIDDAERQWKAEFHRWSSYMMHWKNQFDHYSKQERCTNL

BuChE from equine serum [2] = biological target: T3, BuChE from equine serum (Equus caballus, UniProt P81908); conditions: cited from earlier work
T3 construct: AChE was obtained from electric eel and BuChE from equine serum; purchased Sigma Aldrich; host or cells: equine serum (natural source)
T3 sequence (P81908 whole entry): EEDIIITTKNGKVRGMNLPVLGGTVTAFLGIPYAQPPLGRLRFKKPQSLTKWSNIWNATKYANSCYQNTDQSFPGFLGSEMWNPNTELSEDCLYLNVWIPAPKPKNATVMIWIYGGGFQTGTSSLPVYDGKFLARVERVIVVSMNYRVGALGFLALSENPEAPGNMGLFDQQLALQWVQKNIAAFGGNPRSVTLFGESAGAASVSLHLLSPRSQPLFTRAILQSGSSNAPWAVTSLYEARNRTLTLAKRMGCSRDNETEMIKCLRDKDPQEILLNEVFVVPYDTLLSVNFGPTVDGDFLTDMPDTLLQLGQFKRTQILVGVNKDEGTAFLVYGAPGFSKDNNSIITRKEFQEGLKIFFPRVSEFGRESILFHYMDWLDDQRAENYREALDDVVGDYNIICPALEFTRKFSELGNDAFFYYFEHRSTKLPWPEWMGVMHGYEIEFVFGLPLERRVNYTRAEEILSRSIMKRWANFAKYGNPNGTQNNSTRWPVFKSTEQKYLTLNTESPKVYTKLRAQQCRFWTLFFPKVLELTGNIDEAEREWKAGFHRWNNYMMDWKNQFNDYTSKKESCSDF

AChE from electric eel [3] = biological target: T2, AChE from electric eel; test: eeAChE inhibition, Ellman's method; assay type: biochemical; conditions: for inhibition at 10 µM: read-out: eeAChE % Inh.; for IC50: AChE from electric eel, read-out: eeAChE IC50 Mean ± SEM
Description: The inhibitory activities of the tested compounds against cholinesterases were evaluated by Ellman’s method. AChE was obtained from electric eel and BuChE from equine serum. Donepezil and rivastigmine were used as reference compounds. […]. Inhibitory activities of the tested compounds against cholinesterases were measured using a spectrophotometric method modified for 96-well microplates as described recently.
[…]. First, all compounds were screened at the concentration of 10 μM. The changes in absorbance were measured at 412 nm, using a microplate reader (EnSpire Multimode; PerkinElmer, Waltham, MA, USA). Then, the percent of inhibition of tested enzymes for each compound was calculated. […] Each concentration was measured in triplicate. All calculations were made using nonlinear regression GraphPad Prism 5 (GraphPad Software, San Diego, CA, USA).

BuChE from equine serum [4] = biological target: T3, BuChE from equine serum; test: eqBuChE inhibition, Ellman's method; assay type: biochemical; conditions: BuChE from equine serum; read-out: eqBuChE IC50 Mean ± SEM
Description: The inhibitory activities of the tested compounds against cholinesterases were evaluated by Ellman’s method. AChE was obtained from electric eel and BuChE from equine serum. […] Inhibitory activities of the tested compounds against cholinesterases were measured using a spectrophotometric method modified for 96-well microplates as described recently.
First, all compounds were screened at the concentration of 10 μM. […] Then, the percent of inhibition of tested enzymes for each compound was calculated. […] Each concentration was measured in triplicate. All calculations were made using nonlinear regression GraphPad Prism 5 (GraphPad Software, San Diego, CA, USA).

[5] = biological target: T4, human histamine H3 receptor (Homo sapiens, UniProt Q9Y5N1); conditions: cited from earlier work; for Ki: read-out: hH3R Ki Mean ± SD [CI 95%], [3H]Nα-methylhistamine, HEK293 cells stably expressing human H3R
T4 construct: expressed in transfected cells; host or cells: HEK293
T4 sequence (Q9Y5N1 whole entry): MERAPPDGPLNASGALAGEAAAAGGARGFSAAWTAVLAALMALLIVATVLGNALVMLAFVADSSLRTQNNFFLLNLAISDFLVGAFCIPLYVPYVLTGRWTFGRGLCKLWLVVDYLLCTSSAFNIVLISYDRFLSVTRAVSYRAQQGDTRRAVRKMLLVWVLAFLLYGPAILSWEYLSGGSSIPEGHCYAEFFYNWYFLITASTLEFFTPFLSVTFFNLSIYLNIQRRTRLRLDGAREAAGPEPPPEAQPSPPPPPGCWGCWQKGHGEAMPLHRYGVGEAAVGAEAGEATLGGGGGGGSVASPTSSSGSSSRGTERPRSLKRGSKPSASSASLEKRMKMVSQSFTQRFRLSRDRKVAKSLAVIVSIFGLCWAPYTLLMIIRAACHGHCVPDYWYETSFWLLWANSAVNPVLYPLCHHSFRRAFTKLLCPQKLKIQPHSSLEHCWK

[6] = biological target: T4, human histamine H3 receptor; test: hH3R radioligand binding assay ([3H]Nα-methylhistamine)
Description: Affinity to human histamine H3 receptor stably expressed in HEK293 cells was evaluated in a radioligand binding assay with N^α-methylhistamine according to the previous procedure. […] The bound radioligand was separated from the free radioligand by filtration through GF/B filters (pretreated with 0.3% (m/v) polyethylenimine) using Inotech cell harvester (Dottikin, Switzerland). Unbound radioligand was removed by three washing steps with ice-cold water. The radioactivity was determined in a liquid scintillation counter (Perkin Elmer Trilux Betacounter, Germany). Scintillation data corrected for non-specific binding were analyzed using GraphPad Prism (V6.01, San Diego, CA, USA) software. Ki values were calculated from IC50 values (from at least three experiments, performed in duplicates) according to the Cheng–Prusoff equation [29].

[7] = system: mouse model of scopolamine-induced memory impairments; test: step-through Passive Avoidance Task; assay type: in vivo; conditions: mice; for latency times, acquisition trial: i.p.
Description: This procedure was created for studying short-term memory as well as long-term memory. The paradigm requires the rodents to behave contrary to their innate preference for dark areas and for avoiding bright ones.
The experiments were carried out on adult male Albino Swiss mice (CD-1, 18–25 g). […] Experimental groups consisted of 6–12 animals, all the animals were used only once and they were killed by cervical dislocation immediately after the assay. Behavioral measures were scored by trained observers, which were blind to experimental conditions. Treatment of laboratory animals in the present study was in full accordance with the respective Polish regulations.
Control animals (negative control) were given an appropriate amount of vehicle (1% aqueous solution of Tween 80; i.p.) 30 min before the test.
The task was performed according to the method described previously. Briefly, the test was conducted in the apparatus with two compartments (LE872, Bioseb, France). The illuminated white compartment (20 cm × 21 cm × 20 cm, 1000 lx) was separated by an automated sliding gate with the smaller dark compartment (7.3 cm × 7.5 cm × 14 cm, 10 lx) equipped with an electric grid floor. For acquisition session, mice were first placed individually in the white compartment and after 30 s the gate to the smaller compartment was opened. Immediately after entering into the dark compartment, the gate was closed and the mouse was punished by an unavoidable electric foot shock (0.8 mA for 2 s). […] Next day (24 h later), the pretested animals were placed again into the bright compartment. […] The latency time to cross through the gate between the compartments was measured.

[8] = biological target: human butyrylcholineserase; conditions: read-out: hBuChE IC50; cited from earlier work
[9] = read-out: eqBuChE IC50 Mean ± SEM
[10] = [3H]Nα-methylhistamine, HEK293 cells stably expressing human H3R, read-out: hH3R Ki Mean ± SD [CI 95%]

| Structure (SMILES) | inhibition at 1 µM (human MAO B) [%] | inhibition at 10 µM (AChE from electric eel [3]) [%] | IC50 (BuChE from equine serum [4]) [nM] | other results |
| --- | --- | --- | --- | --- |
| CC1CCN(CCCCCOc2ccc(-c3ccccc3)cc2)CC1 [Compound 3] | 36 | – | – | eeAChE % Inh. (AChE from electric eel [1]): (42% ± 1) ^i; IC50 (BuChE from equine serum [2]; read-out: eqBuChE IC50): 851 nM; IC50 (BuChE from equine serum [2]; [9]): 850 ± 20 nM |
| CC1CCN(CCCCCCOc2ccc(-c3ccccc3)cc2)CC1 [Compound 4] | 27 | – | – | IC50 (AChE from electric eel [1]; AChE from electric eel, read-out: eeAChE IC50 Mean ± SEM): 4.46 ± 0.1 µM; eeAChE % Inh. (AChE from electric eel [1]): more than 50%; IC50 (BuChE from equine serum [2]; [9]): 740 ± 20 nM |
| c1ccc(-c2ccc(OCCCCCN3CCCCC3)cc2)cc1 [Compound 6] | 50 | 24 | 2160 ± 30 | – |
| c1ccc(-c2cccc(OCCCCCN3CCCCC3)c2)cc1 [Compound 7] | 11 | 24 | 1290 ± 20 | – |
| c1ccc(-c2ccc(OCCCCCCN3CCCCC3)cc2)cc1 [Compound 8] | 36 | 48 | 1630 ± 50 | – |
| c1ccc(-c2cccc(OCCCCCCN3CCCCC3)c2)cc1 [Compound 9] | 16 | 35 | 1780 ± 80 | Ki [5]: 149 ± 108 nM |
| c1ccc(-c2ccccc2OCCCCCCN2CCCCC2)cc1 [Compound 10, 1-(6-[1,1′-Biphenyl]-2-yloxy)hexyl)piperidine Hydrogen Oxalate] | 40 | 8 | 1280 ± 20 | Ki [6]: 221 nM |
| CC1CCCN(CCCCCOc2ccc(-c3ccccc3)cc2)C1 (centres unmarked) [Compound 11, 1-(5-([1,1′-Biphenyl]-4-yloxy)pentyl)-3-methylpiperidine Hydrogen Oxalate] | 28 | 45 | 910 ± 10 | Ki [6, 10]: 27.3 ± 15.1 nM |
| CC1CCCN(CCCCCOc2cccc(-c3ccccc3)c2)C1 (centres unmarked) [Compound 12, 1-(5-([1,1′-Biphenyl]-3-yloxy)pentyl)-3-methylpiperidine Hydrogen Oxalate] | 5 | 27 | 680 ± 10 | Ki [6]: 45 ± 13.4 nM |
| CC1CCCN(CCCCCCOc2ccc(-c3ccccc3)cc2)C1 (centres unmarked) [Compound 13, 1-(6-([1,1′-Biphenyl]-4-yloxy)hexyl)-3-methylpiperidine Hydrogen Oxalate] | 20 | > 50 | 950 | Ki [6, 10]: 146 ± 65.3 nM; IC50 (AChE from electric eel [3]): 5.02 ± 0.09 µM |
| CC1CCCN(CCCCCCOc2cccc(-c3ccccc3)c2)C1 (centres unmarked) [Compound 14, 1-(6-([1,1′-Biphenyl]-3-yloxy)hexyl)-3-methylpiperidine Hydrogen Oxalate] | 35 | > 50 | 1520 ± 40 | Ki [6]: 27 nM; IC50 (AChE from electric eel [3]): 4.71 ± 0.13 µM |
| CC1CCCN(CCCCCCOc2ccccc2-c2ccccc2)C1 (centres unmarked) [Compound 15, 1-(6-([1,1′-Biphenyl]-2-yloxy)hexyl)-3-methylpiperidine Hydrogen Oxalate] | 16 | 24 | 2100 ± 60 | Ki [6]: 23 nM |
| CC1CCN(CCCCCOc2cccc(-c3ccccc3)c2)CC1 [Compound 16] | 7 | 41 | 1460 ± 30 | – |
| CC1CCN(CCCCCCOc2cccc(-c3ccccc3)c2)CC1 [Compound 17] | 5 | 48 | 1490 ± 40 | Ki [5]: 172 ± 73 nM |
| CC1CCN(CCCCCCOc2ccccc2-c2ccccc2)CC1 [Compound 18, 1-(6-([1,1′-Biphenyl]-2-yloxy)hexyl)-4-methylpiperidine Hydrogen Oxalate] | 24 | 20 | 1480 ± 40 | Ki [6]: 561 nM |
| c1ccc(-c2cccc(OCCCCCN3CCCCCC3)c2)cc1 [Compound 20] | 14 | 26 | 470 ± 10 | – |
| c1ccc(-c2cccc(OCCCCCCN3CCCCCC3)c2)cc1 [Compound 21] | 43 | > 50 | 870 | IC50 (AChE from electric eel [3]): 3.86 ± 0.08 µM; Ki [5]: 19 ± 5.5 nM |
| c1ccc(-c2ccccc2OCCCCCCN2CCCCCC2)cc1 [Compound 22, 1-(6-([1,1′-Biphenyl]-2-yloxy)hexyl)azepane Hydrogen Oxalate] | 17 | 30 | 690 ± 50 | Ki [6]: 528 nM |
| Clc1ccc(CCCOCCCN2CCCCC2)cc1 [Pitolisant, reference compound] | 2 | – | – | – |
| CCN(C)C(=O)Oc1cccc([C@H](C)N(C)C)c1 [Rivastigmine, rivastigmine, reference compound] | – | – | – | latency time, retention trial ([7]; 1.0 mg/kg i.p. before scopolamine 1 mg/kg): 84.6 ± 20.1 s; latency time, retention trial ([7]; 2.5 mg/kg i.p. before scopolamine 1 mg/kg): 98.7 ± 17.9 s; latency times, acquisition trial [7]: neither scopolamine, nor 19 nor rivastigmine significantly affected latency times; IC50 [8]: 370 nM |
| CN1[C@@H]2C[C@@H](OC(=O)[C@H](CO)c3ccccc3)C[C@H]1[C@@H]1O[C@@H]12 [Scopolamine, scopolamine, reference compound] | – | – | – | latency times, acquisition trial [7]: neither scopolamine, nor 19 nor rivastigmine significantly affected latency times |
| CNCCc1cnc[nH]1 [[^3H]N^α-methylhistamine, reference compound] | – | – | – | Kd ([5]; hH3R stably expressed in HEK293 cells, read-out: KD of radioligand at hH3R): 3.08 nM |

Reference: publication PMC8231170, “Biphenylalkoxyamine Derivatives–Histamine H3 Receptor Ligands with Butyrylcholinesterase Inhibitory Activity” (Molecules, 2021)
